Test results: PMC6311682, “Design, Synthesis, and Biological Evaluation of 2-Nitroimidazopyrazin-one/-es with Antitubercular and Antiparasitic Activity” (Journal of Medicinal Chemistry, 2018)
≈ marks a conversion by molar mass, not a printed value. Read-outs that look alike come from different tables or passages of the source.

How the values were obtained:
[1] = Broth microdilution MIC assay, ESKAPE pathogens; assay type: cell-based; conditions: S. aureus, E. coli, K. pneumoniae, A. baumannii, P. aeruginosa; read-out: antibacterial MIC ESKAPE
[2] = tested on: ESKAPE pathogens S. aureus (ATCC 43300), E. coli (ATCC 25922), K. pneumoniae (ATCC 700603), A. baumannii (ATCC 19606), P. aeruginosa (ATCC 27853); experiment: Broth microdilution MIC assay, ESKAPE pathogens; assay type: cell-based
[3] = tested on: C. difficile (630, ATCC BAA-1382); experiment: Broth microdilution MIC assay, C. difficile; assay type: cell-based, Clostridium difficile; conditions: 630 ATCC BAA-1382, median MIC; for MIC: Clostridioides difficile, ATCCBAA1382, read-out: antibacterial MIC C. difficile
[4] = Kinetic solubility determination by LC-UV; conditions: room temperature, 1% DMSO
[5] = tested on: L. donovani MHOM/IN/80/DD8 (ATCC50212); experiment: L. donovani DD8 intracellular (THP-1) amastigote assay; assay type: cell-based; conditions: Leishmania donovani
[6] = tested on: E. histolytica (HM1:IMSS); experiment: ATP-bioluminescence cell growth and survival assay, E. histolytica trophozoites; assay type: cell-based; conditions: Entamoeba histolytica
[7] = Mammalian cytotoxicity assay (resazurin), HEK293; conditions: human, HEK293 cells
[8] = tested on: C. albicans (ATCC 90028) and C. neoformans (H99, ATCC 208821); experiment: Broth microdilution MIC assay, fungi; assay type: cell-based; conditions: for MIC: Candida albicans, read-out: antifungal MIC
[9] = Mammalian cytotoxicity assay (resazurin), HepG2; conditions: human, HepG2 cells
[10] = PBS, pH 7.4, Solubility µM (PBS), PBS pH 7.4, 24 h
[11] = water, Solubility µM (H2O), 24 h
[12] = read-out: antiparasitic IC50 L. donovani
[13] = read-out: antiparasitic pIC50 ± SE L. donovani (converted)
[14] = read-out: antiparasitic IC50 E. histolytica
[15] = read-out: antiparasitic pIC50 ± SE E. histolytica (converted)

SMILES | MIC [1] | antibacterial MIC ESKAPE [2] | antibacterial MIC C. difficile [3] | MIC [3] | solubility at 24 h [4, 10] | solubility at 24 h [4, 11] | IC50 [5, 12] | IC50 [5, 13] | IC50 [6, 14] | IC50 [6, 15] | CC50 at 24 h [7] | antifungal MIC [8] | MIC [8] | CC50 at 24 h [9]
O=c1c2nc([N+](=O)[O-])cn2ccn1CCO [17p, 7-(2-Hydroxyethyl)-2-nitroimidazo[1,2-a]pyrazin-8(7H)-one] | > 32 µg/mL | >32 µg/mL | >64 µg/mL | > 64 µg/mL | > 200 µM | > 200 µM | > 80 µM | > 79.4 µM | > 50 µM | > 50.1 µM |  |  |  | 
Cc1c(C)n2cc([N+](=O)[O-])nc2c(=O)n1Cc1ccccc1OC(F)(F)F [26h, 5,6-Dimethyl-2-nitro-7-(2-(trifluoromethoxy)benzyl)imidazo[1,2-a]pyrazin-8(7H)-one] | > 32 µg/mL | >32 µg/mL |  |  | 4.6 ± 0.6 µM (≈ 1.76 µg/mL) | 7.28 ± 0.695 µM (≈ 2.78 µg/mL) |  |  |  |  | > 100 µM | >32 µg/mL | > 32 µg/mL | > 100 µM
O=[N+]([O-])c1cn2ccnc(OCCc3ccc(OC(F)(F)F)cc3)c2n1 [18m, 2-Nitro-8-(4-(trifluoromethoxy)phenethoxy)imidazo[1,2-a]pyrazine] | > 32 µg/mL | >32 µg/mL |  | 64 µg/mL (≈ 174 µM) |  |  |  |  |  |  |  |  |  | 
CC(c1ccc(F)cc1)n1ccn2cc([N+](=O)[O-])nc2c1=O (centres unmarked) [17l, 7-(1-(4-Fluorophenyl)ethyl)-2-nitroimidazo[1,2-a]pyrazin-8(7H)-one] | > 32 µg/mL | >32 µg/mL | >64 µg/mL | > 64 µg/mL | < 10 µM | < 10 µM | > 80 µM | > 79.4 µM | > 50 µM | > 50.1 µM |  |  |  | 
O=c1c2nc([N+](=O)[O-])cn2ccn1CCN1CCOCC1 [17q, 4-(2-(2-Nitro-8-oxoimidazo[1,2-a]pyrazin-7(8H)-yl)ethyl)morpholin-4-ium 2,2,2-Trifluoroacetate] | > 32 µg/mL | >32 µg/mL | >64 µg/mL | > 64 µg/mL |  |  | > 80 µM | > 79.4 µM | > 50 µM |  |  |  |  | 
Cc1ccc(CNC(=O)c2nc([N+](=O)[O-])c[nH]2)cc1 [16d, N-(4-Methylbenzyl)-5-nitro-1H-imidazole-2-carboxamide] |  |  |  |  |  |  |  |  |  |  | > 100 µM |  |  | > 100 µM
O=[N+]([O-])c1cn2ccnc(OCc3ccccc3OC(F)(F)F)c2n1 [18i, 2-Nitro-8-((2-(trifluoromethoxy)benzyl)oxy)imidazo[1,2-a]pyrazine] | > 32 µg/mL | >32 µg/mL |  |  | < 5 µM | < 5 µM |  |  | > 50 µM | > 50.1 µM |  |  |  | 
NC(=O)c1nc([N+](=O)[O-])cn1Cc1ccccc1 [28b] |  |  |  |  |  |  |  |  |  |  | > 100 µM |  |  | > 100 µM
Cc1cn2cc([N+](=O)[O-])nc2c(OCc2cccc(OC(F)(F)F)c2)n1 [25k] | > 32 µg/mL |  |  |  |  |  | > 40 µM | > 39.8 µM |  |  | > 100 µM |  | > 32 µg/mL | > 100 µM
NC(=O)Cn1ccn2cc([N+](=O)[O-])nc2c1=O [17s, 2-(2-Nitro-8-oxoimidazo[1,2-a]pyrazin-7(8H)-yl)acetamide] | > 32 µg/mL | >32 µg/mL | >64 µg/mL | > 64 µg/mL | > 200 µM | > 200 µM | > 80 µM | > 79.4 µM | > 50 µM | > 50.1 µM |  |  |  | 
O=c1c2nc([N+](=O)[O-])cn2cc(-c2ccccc2)n1CCO [24d, 7-(2-Hydroxyethyl)-2-nitro-6-phenylimidazo[1,2-a]pyrazin-8(7H)-one] | > 32 µg/mL | >32 µg/mL | >64 µg/mL | > 64 µg/mL | 164 ± 21 µM (≈ 49.2 µg/mL) | 163 ± 15 µM (≈ 48.9 µg/mL) |  |  |  |  |  | >32 µg/mL | > 32 µg/mL | 
Cc1ccc(COc2nc(C)cn3cc([N+](=O)[O-])nc23)cc1 [25i, 6-Methyl-8-((4-methylbenzyl)oxy)-2-nitroimidazo[1,2-a]pyrazine] | > 32 µg/mL | >32 µg/mL |  |  | < 5 µM | < 5 µM |  |  |  |  | > 100 µM | >32 µg/mL | > 32 µg/mL | > 100 µM
